Data as given in PubChem BioAssay (NCI).
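Values below derive from 48-hour exposures of cells grown in 96-well plates, with endpoints linearly interpolated between the two concentrations bracketing the appropriate inhibition level. GI50 = concentration required for 50% inhibition of growth. TGI is the concentration that stops growth completely.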

Experiments:
Test in all cases: inhibition of tumour cell growth, NCI panel, 48 h
IGROV1 ovarian = test system: IGROV1 ovarian
HOP-62 NSCLC = test system: HOP-62 NSCLC
HCC-2998 colon = test system: HCC-2998 colon
SK-MEL-5 melanoma = test system: SK-MEL-5 melanoma
U251 CNS = test system: U251 CNS
RPMI-8226 leukemia = test system: RPMI-8226 leukemia
HOP-92 NSCLC = test system: HOP-92 NSCLC
SNB-75 CNS = test system: SNB-75 CNS

SMILES | GI50 (IGROV1 ovarian) | TGI (IGROV1 ovarian) | GI50 (HOP-62 NSCLC) | TGI (HOP-62 NSCLC) | GI50 (HCC-2998 colon) | TGI (HCC-2998 colon) | GI50 (SK-MEL-5 melanoma) | TGI (SK-MEL-5 melanoma) | GI50 (U251 CNS) | TGI (U251 CNS) | GI50 (RPMI-8226 leukemia) | TGI (RPMI-8226 leukemia) | GI50 (HOP-92 NSCLC) | TGI (HOP-92 NSCLC) | GI50 (SNB-75 CNS) | TGI (SNB-75 CNS)
O=C(Nc1ccccc1Cl)c1ccc(NC2=C(Cl)C(=O)N(C3CCCCC3)C2=O)cc1 | 6.87 µM | 23.3 µM | 8.37 µM | 29.3 µM | 3.55 µM | 6.05 µM | 11.5 µM | 40.3 µM | 3 µM | 19.4 µM | 7.35 µM | 34.2 µM | 17.4 µM | 42.2 µM | 8.64 µM | 34.4 µM
O=C(Nc1cccc(C(F)(F)F)c1)c1ccc(NC2=C(Cl)C(=O)N(Cc3ccccc3)C2=O)cc1 | 2.01 µM | 4.63 µM | 13.1 µM | 25.8 µM | 1.29 µM | 2.85 µM | 4.07 µM | 18.1 µM | 13.7 µM | 27.1 µM | 2.17 µM | 4.88 µM | 3.93 µM | 14.2 µM | 23.1 µM | 51.4 µM
CCCCc1n(Cc2ccc3ccccc3n2)cc[n+]1Cc1ccc2ccccc2n1 | 1.17 µM | 10.9 µM | 2.72 µM | 11.1 µM | 0.813 µM | 10.4 µM | 0.827 µM | 2.21 µM | 0.925 µM | 12.4 µM | 0.295 µM | 3.28 µM | 0.491 µM | 4.34 µM | 0.889 µM | 6.01 µM
Cc1ccc2[nH]c(O)c(N=Nc3ccccc3[N+](=O)[O-])c2c1 |  | 20 µM |  | 10.7 µM |  | > 100 µM |  | > 100 µM |  | 18.6 µM |  | > 100 µM |  | 6.55 µM |  | > 50 µM
C=CCOc1ccc(N)c([N+](=O)[O-])c1 |  | > 100 µM |  | > 100 µM |  | > 100 µM |  | > 100 µM |  | > 100 µM |  | > 100 µM |  |  |  | > 100 µM
COc1ccc(C2CC(c3ccc(OC)cc3O)=NN2c2ccc(S(N)(=O)=O)cc2)cc1 (configuration not stated) | 6.34 µM | > 100 µM | 33.1 µM | > 100 µM | 16.5 µM | > 100 µM | 14.9 µM | > 100 µM | 6.42 µM | > 100 µM | 4.67 µM | > 100 µM | 3.27 µM | 32.8 µM | 20.8 µM | > 100 µM
CC[C@]12C=CCN3CC[C@@]4(c5ccc(OC)cc5N(C)[C@H]4[C@@](O)(C(=O)OC)[C@@H]1OC(=O)CCC(=O)O[C@H]1CC[C@H]4[C@@H]5CC[C@H]6CC(=O)CC[C@]6(C)[C@H]5CC[C@]14C)[C@@H]32 | 3.17 µM | > 100 µM | 4.83 µM | > 100 µM | 3.34 µM | > 100 µM | 1.65 µM | 4.03 µM | 3.74 µM | 22.8 µM |  |  | 1.83 µM | 9.72 µM | 3.3 µM | > 100 µM
COc1c(C)c(OC)c(C(=O)CC(C)C)c(OC)c1C |  | > 100 µM |  | > 100 µM |  | > 100 µM |  | > 100 µM |  | > 100 µM |  | 73.1 µM |  | > 100 µM |  | 
CCN(CC)CCCNc1n[n+]([O-])c2ccccc2[n+]1[O-] |  | 24.2 µM |  |  |  | 15.7 µM |  | 3.54 µM |  | > 100 µM |  | 23.3 µM |  | > 100 µM |  | 77.1 µM
